Among the data in US20210269434A1, “TRICYCLIC COMPOUNDS AS INHIBITORS OF KRAS” (Incyte Corporation, priority 2020, published 2021) are IC50 values, retold here.

In one assay the target is KRAS G12D (Homo sapiens, UniProt P01116, G12D). As to the kind of experiment: GDP-GTP exchange assay (KRAS_G12D exchange). Format: biochemical. To be noted: bodipy loaded KRAS G12D 2.5 nM; 4 hours incubation after GppNHp-SOS1; read-out: G12D_exchange. Here is the method: Example A. GDP-GTP Exchange Assay
The inhibitor potency of the exemplified compounds was determined in a fluorescence based guanine nucleotide exchange assay, which measures the exchange of bodipy-GDP (fluorescently labeled GDP) for GppNHp (Non-hydrolyzable GTP analog) to generate the active state of KRAS in the presence of SOS1 (guanine nucleotide exchange factor). Inhibitors were serially diluted in DMSO and a volume of 0.1 μL was transferred to the wells of a black low volume 384-well plate. 5 μL/well volume of bodipy-loaded KRAS G12C diluted to 5 nM in assay buffer (25 mM Hepes pH 7.5, 50 mM NaCl, 10 mM MgCl2 and 0.01% Brij-35) was added to the plate and pre-incubated with inhibitor for 2 hours at ambient temperature. Appropriate controls (enzyme with no inhibitor or with a G12C inhibitor (AMG-510)) were included on the plate. The exchange was initiated by the addition of a 5 μL/well volume containing 1 mM GppNHp and 300 nM SOS1 in assay buffer. The 10 μL/well reaction concentration of the bodipy-loaded KRAS G12C, GppNHp, and SOS1 were 2.5 nM, 500 uM, and 150 nM, respectively. The reaction plates were incubated at ambient temperature for 2 hours, a time estimated for complete GDP-GTP exchange in the absence of inhibitor. For the KRAS G12D and G12V mutants, similar guanine nucleotide exchange assays were used with 2.5 nM as final concentration for the bodipy loaded KRAS proteins and with 4 hours and 3 hours incubation after adding GppNHp-SOS1 mixture for G12D and G12V respectively. A cyclic peptide described to selectively bind G12D mutant (Sakamoto et al., BBRC 484.3 (2017), 605-611) or internal compounds with confirmed binding were used as positive controls in the assay plates. Fluorescence intensities were measured on a PheraStar plate reader instrument (BMG Labtech) with excitation at 485 nm and emission at 520 nm.
Either GraphPad prism or XLfit was used to analyze the data. The IC50 values were derived by fitting the data to a four parameter logistic equation producing a sigmoidal dose-response curve with a variable Hill coefficient. Prism equation: Y=Bottom+(Top−Bottom)/(1+10^((Log lC50−X)*Hill slope)); XLfit equation: Y=(A+((B−A)/(1+((X/C)^D)))) where X is the logarithm of inhibitor concentration and Y is the response.

The test system of assay [1] is MIA PaCa-2 (KRAS G12C) cells. As to the kind of experiment: Cellular pERK HTRF assay (KRAS_G12C pERK). The note with it: Homo sapiens, MIA PaCa-2, 4 hours incubation, read-out: G12C_pERK. Format: cell-based, human. The gist of the method:
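Phospho-ERK1/2 HTRF readout (665 and 620 nm) in lysed MIA PaCa-2 cells, antibodies incubated overnight at room temperature. Cells seeded the day before and treated with G12C compounds for 4 h at 37 °C; IC50 fitted to percent inhibition against log inhibitor concentration.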
Background: TR-FRET usually uses a lanthanide donor and a delayed reading to cut background.

In the next assay the target is KRAS G12C (Homo sapiens, UniProt P01116, G12C). As to the kind of experiment: GDP-GTP exchange assay (KRAS_G12C exchange). To be noted: bodipy-GDP loaded KRAS G12C 2.5 nM, SOS1 150 nM, GppNHp; 2 hours pre-incubation, 2 hours reaction; read-out: G12C_exchange. The assay is classed as biochemical. The gist of the method: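 Fluorescence exchange of bodipy-GDP for GppNHp, SOS1-driven, read at 485/520 nm; IC50 from four-parameter variable-slope fit. Both mutants used 2.5 nM final labelled protein and a 2 h compound pre-incubation. G12C reaction had 500 uM GppNHp and 150 nM SOS1 for 2 h; G12D ran 4 h.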
KRAS G12C, sequence (P01116 1-188 isoform P01116-2 G12C): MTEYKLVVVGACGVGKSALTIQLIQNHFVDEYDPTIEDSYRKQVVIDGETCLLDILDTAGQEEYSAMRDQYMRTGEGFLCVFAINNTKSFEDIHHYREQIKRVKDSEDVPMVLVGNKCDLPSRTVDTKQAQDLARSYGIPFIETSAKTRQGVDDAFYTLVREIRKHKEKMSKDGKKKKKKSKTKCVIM

KRAS G12D, sequence (P01116 1-188 isoform P01116-2 G12D): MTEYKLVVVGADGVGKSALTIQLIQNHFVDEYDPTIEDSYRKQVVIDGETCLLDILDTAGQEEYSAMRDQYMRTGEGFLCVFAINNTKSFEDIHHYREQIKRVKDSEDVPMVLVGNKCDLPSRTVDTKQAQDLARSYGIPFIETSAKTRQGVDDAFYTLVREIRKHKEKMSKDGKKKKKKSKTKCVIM

Consider `CN(C)Cc1nc2c(N3CC(N(C)C)C3)nc3c(F)c(-c4cc(O)cc5ccccc45)c(Cl)cc3c2n1[C@H]1[C@H]2CN[C@@H]1C2` (racemic) [Example 49, 4-(1-((endo)-2-azabicyclo[2.1.1]hexan-5-yl)-8-chloro-4-(3-(dimethylamino)-azetidin-1-yl)-2-((dimethylamino)methyl)-6-fluoro-1H-imidazo[4,5-c]quinolin-7-yl)naphthalen-2-ol], for which, on KRAS G12D, the IC50 lay within 5 to 10 µM.
With `CN(C)C1CN(c2nc3c(F)c(-c4cc(O)cc5ccccc45)c(-c4cn[nH]c4)cc3c3c2ncn3[C@H]2[C@H]3CN[C@@H]2C3)C1` (single isomer, unassigned) [Example 25a, 4-(1-((endo)-2-azabicyclo[2.1.1]hexan-5-yl)-4-(3-(dimethylamino)azetidin-1-yl)-6-fluoro-8-(1H-pyrazol-4-yl)-1H-imidazo[4,5-c]quinolin-7-yl)naphthalen-2-ol], the IC50 at KRAS G12D is 5 to 10 µM.
Same read-out and setting: then `CNC(=O)c1cc(-c2nc3c(F)c(-c4cc(O)cc5ccccc45)c(CCC#N)cc3c3c2nc(CCC(=O)N(C)C)n3C2C3CNC2C3)ccc1F` (stereo not drawn) [Example 297, 5-(1-((endo)-2-azabicyclo[2.1.1]hexan-5-yl)-8-(2-cyanoethyl)-2-(3-(dimethylamino)-3-oxopropyl)-6-fluoro-7-(3-hydroxynaphthalen-1-yl)-1H-imidazo[4,5-c]quinolin-4-yl)-2-fluoro-N-methylbenzamide], with not above 0.1 µM; and `CN(C)C1CN(c2nc3c(F)c(-c4cc(O)cc5ccccc45)c(C#N)cc3c3c2ncn3[C@H]2[C@H]3CN[C@@H]2C3)C1` (relative stereo) [Example 50, 1-((endo)-2-azabicyclo[2.1.1]hexan-5-yl)-4-(3-(dimethylamino)azetidin-1-yl)-6-fluoro-7-(3-hydroxynaphthalen-1-yl)-1H-imidazo[4,5-c]quinoline-8-carbonitrile], with 0.1 to 1 µM.
Still for that read-out and setting: with `CN(C)C1CN(c2nc3c(F)c(-c4cc(O)cc5ccccc45)c(Cl)cc3c3c2nc(CO)n3[C@H]2[C@H]3CN[C@@H]2C3)C1` (relative stereo) [Example 75, 4-(1-((endo)-2-azabicyclo[2.1.1]hexan-5-yl)-8-chloro-4-(3-(dimethylamino)-azetidin-1-yl)-6-fluoro-2-(hydroxymethyl)-1H-imidazo[4,5-c]quinolin-7-yl)naphthalen-2-ol] the figure was 0.1 to 1 µM; with `CN(C)C(=O)CCc1nc2c(N3CC(N(C)C)C3)nc3c(F)c(-c4cc(O)cc5ccccc45)c(Cc4ccccc4C#N)cc3c2n1C1C2CNC1C2` (stereo not drawn) [Example 299, 3-(1-((endo)-2-azabicyclo[2.1.1]hexan-5-yl)-8-(2-cyanobenzyl)-4-(3-(dimethylamino)azetidin-1-yl)-6-fluoro-7-(3-hydroxynaphthalen-1-yl)-1H-imidazo[4,5-c]quinolin-2-yl)-N,N-dimethylpropanamide], not above 0.1 µM.
Still for that read-out and setting: with `CN(C)C1CN(c2nc3c(F)c(-c4cc(O)cc5ccccc45)c(CCC#N)cc3c3c2nc(-c2csc(N4CCNCC4)n2)n3C2C3CNC2C3)C1` (single isomer, unassigned) [Example 302a, 3-(1-((endo)-2-azabicyclo[2.1.1]hexan-5-yl)-4-(3-(dimethylamino)azetidin-1-yl)-6-fluoro-7-(3-hydroxynaphthalen-1-yl)-2-(2-(piperazin-1-yl)thiazol-4-yl)-1H-imidazo[4,5-c]quinolin-8-yl)propanenitrile] the figure was not above 0.1 µM.
With `C=CC(=O)N1CC[C@H](n2cnc3c(N4CC(N(C)C)C4)nc4c(F)c(-c5cc(O)cc(C)c5C)c(Cl)cc4c32)C[C@H]1CC#N` (single isomer, unassigned) [Example 52a], the IC50 (in assay [1]; at KRAS G12C) was not above 0.1 µM throughout.
Turning to `C=CC(=O)N1CC[C@H](n2nnc3c(N4CC(N(C)C)C4)nc4c(F)c(-c5c(C)c(Cl)cc6[nH]ncc56)c(Cl)cc4c32)C[C@H]1CC#N` (single isomer, unassigned) [Example 185a], the IC50 (in assay [1]; on KRAS G12C) was not above 0.1 µM throughout.
Regarding `CC#CC(=O)N1CCC(n2cnc3c(N4CC(C)(N(C)C)C4)nc4c(F)c(-c5cccc6cccc(Cl)c56)c(Cl)cc4c32)C[C@H]1CC#N` (single isomer, unassigned) [Example 213b], the IC50 (in assay [1]; at KRAS G12C) was not above 0.1 µM throughout.
As for `C=CC(=O)N1CC[C@H](n2cnc3c(N4CC(N(C)C)C4)nc4c(F)c(-c5cncc(C)c5C)c(Cl)cc4c32)C[C@H]1CC#N` [Example 110a, 2-((2S,4S)-1-acryloyl-4-(8-chloro-4-(3-(dimethylamino)-azetidin-1-yl)-7-(4,5-dimethylpyridin-3-yl)-6-fluoro-1H-imidazo[4,5-c]quinolin-1-yl)piperidin-2-yl)acetonitrile], the IC50 (in assay [1]; on KRAS G12C) was not above 0.1 µM each time.
Turning to `C=CC(=O)N1CC[C@H](n2nnc3c(N4CC(C)(N(C)C)C4)nc4c(F)c(-c5ccc(F)c6cccnc56)c(C(F)(F)F)cc4c32)C[C@H]1CC#N` (single isomer, unassigned) [Example 233a], the IC50 (in assay [1]; at KRAS G12C) was not above 0.1 µM each time.
In the case of `CC#CC(=O)N1CC[C@H](n2nnc3c(OC[C@@H]4CCCN4C)nc4c(F)c(-c5c(C)c(Cl)cc6[nH]ncc56)c(Cl)cc4c32)C[C@H]1CC#N` [Example 182, 2-((2S,4S)-1-(but-2-ynoyl)-4-(8-chloro-7-(6-chloro-5-methyl-1H-indazol-4-yl)-6-fluoro-4-(((S)-1-methylpyrrolidin-2-yl)methoxy)-1H-[1,2,3]triazolo[4,5-c]quinolin-1-yl)piperidin-2-yl)acetonitrile], the IC50 (in assay [1]; on KRAS G12C) was not above 0.1 µM throughout.
Consider `C=CC(=O)N1CC[C@H](n2nnc3c(OC[C@@H]4CCCN4C)nc4c(F)c(-c5ccc(F)c(C)c5)c(Cl)cc4c32)C[C@H]1CC#N` [Example 187, 2-((2S,4S)-1-acryloyl-4-(8-chloro-6-fluoro-7-(4-fluoro-3-methylphenyl)-4-(((S)-1-methylpyrrolidin-2-yl)methoxy)-1H-[1,2,3]triazolo[4,5-c]quinolin-1-yl)piperidin-2-yl)acetonitrile], for which the IC50 (in assay [1]; at KRAS G12C) was not above 0.1 µM throughout.
On to `C=CC(=O)N1CC[C@H](n2cnc3c(OC[C@@H]4CCCN4C)nc4c(F)c(-c5cccc(Cl)c5C)c(Cl)cc4c32)C[C@H]1CC#N` (single isomer, unassigned) [Example 118a], for which the IC50 (in assay [1]; on KRAS G12C) was not above 0.1 µM throughout.
Turning to `C=CC(=O)N1CC[C@H](n2nnc3c(O[C@@H](C)CN(C)C)nc4c(F)c(-c5ccc(F)cc5)c(Cl)cc4c32)C[C@H]1CC#N` [Example 128, 2-((2S,4S)-1-acryloyl-4-(8-chloro-4-(((S)-1-(dimethylamino)propan-2-yl)oxy)-6-fluoro-7-(4-fluorophenyl)-1H-[1,2,3]triazolo[4,5-c]quinolin-1-yl)piperidin-2-yl)acetonitrile], the IC50 (in assay [1]; on KRAS G12C) was not above 0.1 µM each time.
For the compound `C=CC(=O)N1CCC(n2nnc3c(N4CC(N(C)CC)C4)nc4c(F)c(-c5cccc6cccc(Cl)c56)c(Cl)cc4c32)C[C@H]1CC#N` (single isomer, unassigned) [Example 219a], the IC50 (in assay [1]; at KRAS G12C) was not above 0.1 µM each time.
Consider `C=CC(=O)N1CC[C@H](n2cnc3c(N4CC(N(C)C)C4)nc4c(F)c(-c5c(OC)ncc(Cl)c5C)c(Cl)cc4c32)C[C@H]1CC#N` [Example 90, 2-((2S,4S)-1-acryloyl-4-(8-chloro-7-(5-chloro-2-methoxy-4-methylpyridin-3-yl)-4-(3-(dimethylamino)azetidin-1-yl)-6-fluoro-1H-imidazo[4,5-c]quinolin-1-yl)piperidin-2-yl)acetonitrile], for which the IC50 (in assay [1]; on KRAS G12C) was not above 0.1 µM throughout.
